Consider two compounds from patent US20100273835A1, “NOVEL COMPOUNDS” (PROBIODRUG AG, priority 2007, published 2010).

In assay [1] the target is T1, Recombinant human prolyl oligopeptidase (Homo sapiens, UniProt P48147).
T1 construct: made in house; host or cells: E. coli
T1 sequence (P48147 1-710): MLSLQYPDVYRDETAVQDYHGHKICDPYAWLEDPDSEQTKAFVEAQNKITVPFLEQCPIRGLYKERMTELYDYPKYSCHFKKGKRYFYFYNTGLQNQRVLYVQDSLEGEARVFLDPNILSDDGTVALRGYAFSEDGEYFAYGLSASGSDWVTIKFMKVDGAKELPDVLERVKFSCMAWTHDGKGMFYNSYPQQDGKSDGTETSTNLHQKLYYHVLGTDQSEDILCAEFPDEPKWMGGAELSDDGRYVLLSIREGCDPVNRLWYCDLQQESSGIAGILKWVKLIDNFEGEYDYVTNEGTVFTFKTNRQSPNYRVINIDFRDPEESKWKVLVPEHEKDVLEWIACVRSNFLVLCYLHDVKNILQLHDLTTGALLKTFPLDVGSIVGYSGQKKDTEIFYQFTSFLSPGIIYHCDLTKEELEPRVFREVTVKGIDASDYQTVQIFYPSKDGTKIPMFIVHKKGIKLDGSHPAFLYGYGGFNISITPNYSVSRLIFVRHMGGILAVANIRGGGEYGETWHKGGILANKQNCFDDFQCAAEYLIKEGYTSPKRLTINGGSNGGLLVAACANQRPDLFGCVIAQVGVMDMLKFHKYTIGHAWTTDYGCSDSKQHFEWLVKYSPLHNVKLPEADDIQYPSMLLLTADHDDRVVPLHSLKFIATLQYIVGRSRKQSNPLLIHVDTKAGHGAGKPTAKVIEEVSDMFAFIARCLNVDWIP
Put plainly: Determination of IC50- and Ki-values of PEP-inhibitors, chromogenic substrate Cbz-Gly-L-Pro-pNA. The class given is biochemical. The conditions noted are these: for IC50: substrate 0.15 mM, HEPES buffer pH 7.6, 30° C., n.i. means no inhibition. The method, then: Recombinant human prolyl oligopeptidase was used for measurement. Recombinant expression was performed in E. coli under standard conditions as described elsewhere in the state of the art.
For activity measurements the chromogenic substrate Cbz-Gly-L-Pro-pNA was used in HEPES buffer pH 7.6 containing 50 mM HEPES, 200 mM NaCl, 1 mM EDTA, 1 mM DTT, 0.006% Brij35. Measurements were carried out at 30° C. Release of pNA were monitored continuously at 405 nm.
IC50 values were calculated using non-linear regression to a 4-parameter equation (Prism 4.0, GraphPad).
For Ki determination 4 substrate (0.15 mM, 0.08 mM 0.04 mM, 0.02 mM) and 7 inhibitor concentrations in an appropriate range were used. Calculations were performed by multiple non-linear regression analysis to the equation for competitive inhibition using GraFit 5.0 Software (Erithacus Software).

In assay [2] the test system is beta-amyloid peptides 1-40 and 1-42, U-343 and SH-SY5Y cells. Kind of assay: Beta-amyloid ELISA, secreted beta-amyloid peptides in conditioned medium. In kind it is cell-based. The conditions noted are these: Homo sapiens; inhibitor 20 μM, 24 hours; untreated = 100%; FIG. 2: Abeta 1-42, SH-SY5Y cells; read-out: Extracellular Abeta-concentration % of control. How it is done:
(§1) The human glioma cell line, U-343 and the human neuroblastoma cell line, SH-SY5Y were maintained in Dulbecco's modified Eagle's medium (DMEM) containing 10% fetal bovine serum (Gibco BRL, Karlsruhe, Germany) and incubated at 37° C. in a 5% CO2 atmosphere. Culture media contained in general 60 μg/ml gentamycin (Gibco BRL, Karlsruhe, Germany).
To quantify intracellular and extracellular concentrations of beta-amyloid peptides, 1-40 and 1-42, U-343 and SH-SY5Y cells were cultured in 6 well plates (1.5×10^6 cells/well) and treated with specific PEP inhibitors (20 μM each) for 24 hours. For quantitation of secreted beta-amyloid peptides the conditioned medium was collected and concentrated by lyophylisation. Likewise, after determination of the cell numbers/well (casy cell counter I, Schärfe System, Reutlingen, Germany), cells were lyzed with cell extraction buffer (Biosource, Solingen, Germany) according to the manufacturer's protocol. The protein concentration was determined by the method of Bradford (1976). Aliquots of 100 μl were used to quantify beta-amyloid peptides 1-40 and 1-42 in quadruplicate by ELISA (IBL, Hamburg, Germany) following the manufacturer's instructions. All obtained intracellular and extracellular concentrations were normalized to cell numbers and protein concentration, respectively.
For the calculation of the concentration of beta-amyloid peptides 1-40 and 1-42 in the cell culture medium after PEP-inhibitor treatment, the basal concentration of beta-amyloid peptides 1-40 and 1-42 in the cell culture medium of untreated cell samples was set to 100%. The results of the measurement of the concentration of beta-amyloid peptides 1-40 and 1-42 with PEP-inhibitor treated cells are presented as % of the untreated cell samples.

For assay [3], the system named is basal secretion of IL-6, human glial U-343 cells. Kind of assay: IL-6 ELISA, basal secretion of IL-6 into conditioned medium. The conditions noted are these: inhibitor 20 μM, 24 hours, serum-free medium, untreated = 100%, read-out: Extracellular IL-6 concentration, % of untreated cells. The class given is cell-based. The method, then:
To analyze basal secretion of IL-6, human glial U-343 cells were cultured in 6 well plates (1.5×10^6 cells/well, Greiner) and treated with specific PEP inhibitors as indicated (20 μM each) for 24 hours in serum-free D-MEM medium (Invitrogen). Aliquots of 40 μl conditioned medium were used to quantify the amount of secreted IL-6 by an human-specific IL-6 ELISA (Biosource) following the manufacturer's instructions. All data were obtained in quadruplicate. For the calculation of the IL-6 concentration in the cell culture medium after PEP-inhibitor treatment, the basal IL-6 concentration of the cell culture medium of untreated cell samples was set to 100%. The results of the measurement of the IL-6 concentration with PEP-inhibitor treated cells are presented as % of the untreated cell samples.
as §1

The Ki is the equilibrium dissociation constant of an inhibitor or competing ligand from its target. For orientation: IC50 means the concentration at which inhibition is half-maximal. Turning to `CC(C)(C)OC(=O)N[C@@H](Cc1ccccc1)C(=O)c1nccs1` [Example 26, 2-[Boc-L-Phe]Thiazole], the Ki in assay [1] (4 substrate and 7 inhibitor concentrations, competitive inhibition, pH 7.6, 30° C.) was determined as 52 µM. Further, in assay [1], the IC50 was determined as 77 µM. The figures for the activity at 20 µM in assay [2] and in assay [3] were 168% and 66%, respectively.
On to `CC(C)(C)OC(=O)N[C@@H](Cc1c[nH]c2ccccc12)C(=O)c1nc2ccccc2s1` [Example 16, 2-[Boc-L-Trp]Benzothiazole], for which, in assay [1], the IC50 amounted to 40 µM. For the same compound, the activity at 20 µM turned out to be 177% in assay [2] and 23% in assay [3].
